Assay results taken from patent publication US8598123B2, “Peptide analogues” (Pfizer Inc., priority 2010, dated 2013).
pEC50, pIC50: −log10 of the molar value. Read-outs that look alike come from different tables or passages of the source.

Key:
[1] = Human liver microsomal stability assay (HLM); type: in vitro ADME; settings: 37° C., 1 h time course, read-out: HLM clearance
From the text: (§1) In vitro measurement of substrate metabolism can be determined using the microsomal cytochrome P450 mono-oxygenase system. This is a useful application in ranking clearance of a number of compounds by Phase I (including cytochrome P450) metabolism prior to in vivo assessment Measurement of intrinsic clearance using these methods also allows a comparison of species difference to be made to assist with translation of pharmacokinetic parameters from preclinical to clinical study.
(§2) Rat and Human Liver Microsomal Stability Assay (RLM and HLM Respectively)
(§3) Human and rat Liver microsomal assays were performed using pooled microsomes from the Pfizer Global Supply (BD Gentest™). Chemical reagents were purchased from commercial sources (Sigma-Aldrich) and drug entities synthesised at Pfizer Global Research. Incubation mixtures contained 50 mM phosphate buffer pH 7.4, 5 mM MgCl2, 5 mM isocitric acid and 1 unit/ml isocitric dehydrogenase. The microsomes were defrosted at room temperature and sufficient volumes added to give a final concentration of 0.5 nmol cytochrome P450/ml. Following the addition of 1 μM of substrate, the incubation was pre-incubated at 37° C. for 5 minutes. The reaction was then initiated by the addition of 1 mM NADP and incubation aliquots are taken over a 1 h time course. The reaction was subsequently stopped by addition of acetonitrile cooled on ice. The incubation mixture was then centrifuged and the supernatant removed for injection onto LC-MS/MS system. Providing that the substrate concentration is below the Km, the metabolism should be first order giving a log-linear plot of substrate disappearance over time. The gradient of this line is the first order rate constant (k) and this maybe converted to estimate a substrates intrinsic clearance when factoring in the protein concentration.
(§4) The intrinsic clearance in rat or human liver microsomes is calculated from:
(§5) Where, k=−slope of Ln concentration vs. time (min−1)

[2] = Rat liver microsomal stability assay (RLM); type: in vitro ADME; settings: 37° C., 1 h time course, read-out: RLMclearance
From the text: as §1, §2, §3, §4, §5

physchem = settings: pH 7.4
From the text: LogD octanol (pH 7.4) is a measure of lipophilicity that accounts for both hydrophobic and hydrogen-bonding interactions of a given substrate. This assay is based on shake-flask methodology, performed in a fully automated manner in a 0.1M phosphate buffer pH7.4—octanol system.
After addition of the test substance in DMSO stock solution to the mixture and vigorous agitation followed by separation of the octanol and buffer layers by centrifugation, duplicate samples are removed from each layer and diluted prior to analysis by LC-MS/MS.
The duplicate log D values must be with 0.4 log units of each other and the positive controls must be within 0.2 log units of the known log D value.

mu opioid receptor [3] = biological target: T1, mu opioid receptor (Homo sapiens, UniProt P35372); assay: Beta-arrestin recruitment assay (DiscoveRx PathHunter); type: cell-based; design: host or cells: U2OS cells
Description: The ability of agonists to cause recruitment of beta-arrestin to the mu opioid receptor was measured using DiscoveRx PathHunter technology. A pro-linked tagged mu-opioid receptor and an EA-tagged beta-arrestin were expressed in U20S cells and beta-arrestin recruitment measured following the methodology in McGuinness et al., 2009 (J Biomol Screen 14:49-58, Characterizing cannabinoid CB2 receptor ligands using DiscoverRx PathHunter beta-arrestin assay—McGuinness D., Malikzay A., Visconti R., Lin K., Bayne M., Monsma F., Lunn C A.)
Data appear in the Table below under “arrestin EC50” in nM.
Target sequence in this assay (P35372 whole entry, species assumed): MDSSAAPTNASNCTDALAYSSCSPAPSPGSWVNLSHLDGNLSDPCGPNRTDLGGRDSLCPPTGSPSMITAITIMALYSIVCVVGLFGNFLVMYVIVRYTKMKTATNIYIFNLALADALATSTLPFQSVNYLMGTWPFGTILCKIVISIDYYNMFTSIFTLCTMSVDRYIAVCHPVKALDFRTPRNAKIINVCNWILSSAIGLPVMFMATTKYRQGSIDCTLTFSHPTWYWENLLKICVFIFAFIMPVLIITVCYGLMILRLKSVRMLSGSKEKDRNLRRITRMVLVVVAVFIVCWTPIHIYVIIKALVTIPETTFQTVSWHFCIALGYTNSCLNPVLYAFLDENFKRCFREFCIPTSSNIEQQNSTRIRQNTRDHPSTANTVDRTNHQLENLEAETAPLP
Target sequence in this assay (P32121 whole entry partner, species assumed): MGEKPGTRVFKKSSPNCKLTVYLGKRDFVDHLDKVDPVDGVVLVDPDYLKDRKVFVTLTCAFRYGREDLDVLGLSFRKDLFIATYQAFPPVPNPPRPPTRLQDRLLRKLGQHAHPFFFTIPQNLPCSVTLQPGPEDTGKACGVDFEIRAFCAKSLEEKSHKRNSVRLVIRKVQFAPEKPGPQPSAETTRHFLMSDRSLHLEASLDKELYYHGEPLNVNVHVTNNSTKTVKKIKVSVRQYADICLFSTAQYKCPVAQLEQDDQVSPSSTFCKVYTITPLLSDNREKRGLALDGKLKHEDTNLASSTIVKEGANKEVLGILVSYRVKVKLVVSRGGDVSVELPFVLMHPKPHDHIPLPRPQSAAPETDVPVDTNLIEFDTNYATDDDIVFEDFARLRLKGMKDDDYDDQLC

mu opioid receptor [4] = biological target: T1, mu opioid receptor; assay: Inhibition of forskolin stimulated cAMP production (alphascreen); type: cell-based; design: expressed in transfected cells; host or cells: CHO cells
Description: Forskolin Stimulated cAMP
The ability of mu opioid receptor agonists to inhibit forskolin stimulated cAMP production was measured in CHO cells recombinantly expressing the mu opioid receptor, using alphascreen technology as described in Nickolls et al., 2005, with the additional inclusion of 50 uM forskolin in the assay buffer. (J Pharmacol Exp Ther 313; 1281-88, Functional selectivity of melanocortin 4 receptor peptide and non-peptide agonists: Evidence for ligand specific conformational states. Nickolls S A., Fleck B., Hoare S., Maki R.)
Data appear in the Table below under “mu-opioid IC50” in nM.
Target sequence in this assay (P35372 whole entry, species assumed): as the sequence (P35372 whole entry, species assumed) above

[5] = octanol / 0.1M phosphate buffer pH 7.4, positive controls; cited from earlier work
[6] = pH 7.4, human liver microsomes, 1 μM substrate
[7] = pH 7.4, rat liver microsomes, 1 μM substrate
[8] = U20S cells expressing pro-linked tagged mu-opioid receptor and EA-tagged beta-arrestin, read-out: β-Arrestin EC50
[9] = CHO cells recombinantly expressing the mu opioid receptor, 50 uM forskolin, read-out: mu-opioid IC50

## Cc1cc(O)cc(C)c1C[C@H](NC(=N)N)C(=O)N[C@H](C)C(=O)NCC(CNC(=N)N)Cc1ccccc1 (mixture of isomers) [Example 2]
[1]; [6]
  microsomal CLint at 1 μM: 15.9 µL/min/mg
[2]; [7]
  microsomal CLint at 1 μM: 8.5 µL/min/mg
physchem
  logD: -0.7
Mu opioid receptor [3]; [8]
  pEC50: 7.46

## Cc1cc(O)cc(C)c1C[C@H](NC(=N)N)C(=O)N[C@H](C)C(=O)NC[C@H](Cc1ccccc1)NC(=N)N [Example 1, N-[Amino(imino)methyl]-2,6-dimethyl-L-tyrosyl-N-[(2S)-2-{[amino(imino)methyl]amino}-3-phenylpropyl]-D-alaninamide]
[1]; [6]
  microsomal CLint at 1 μM: 10.6 µL/min/mg
[2]; [7]
  microsomal CLint at 1 μM: 8.5 µL/min/mg
physchem
  logD: -0.2
Mu opioid receptor [3]; [8]
  pEC50: 7.38
Mu opioid receptor [4]; [9]
  pIC50: 7.59

## Cc1cc(O)cc(C)c1C[C@H](N=C(N(C)C)N(C)C)C(=O)N[C@H](C)C(=O)NC[C@H](Cc1ccccc1)NC(=N)N [Example 3]
Mu opioid receptor [3]
  pEC50: 5.00

## C[C@@H](NC(=O)[C@H](Cc1ccc(O)cc1)NC(=N)N)C(=O)NC[C@H](Cc1ccccc1)NC(=N)N [Example 4]
[1]; [6]
  microsomal CLint at 1 μM: 9.54 µL/min/mg
[2]; [7]
  microsomal CLint at 1 μM: 13.4 µL/min/mg
physchem
  logD: -0.3
Mu opioid receptor [3]
  pEC50: 5.29

## Cc1cc(O)cc(C)c1C[C@H](NC(=N)N)C(=O)N[C@H](C)C(=O)NC[C@H](Cc1ccccc1)NC(=O)CNC(=N)N [Example 5]
Mu opioid receptor [3]; [8]
  pEC50: 7.32

## Cc1cc(O)cc(C)c1C[C@H](NC(=N)N)C(=O)N[C@H](C)C(=O)NC[C@H](Cc1ccccc1)NC(=O)CCNC(=N)N [Example 6]
[1]; [6]
  microsomal CLint at 1 μM: 8 µL/min/mg
[2]; [7]
  microsomal CLint at 1 μM: 8.5 µL/min/mg
Mu opioid receptor [3]
  pEC50: 6.79

## Cc1cc(O)cc(C)c1C[C@H](NC(=N)N)C(=O)N[C@H](CCCCCC(=O)O)C(=O)NCCCc1ccccc1 [Example 7]
[1]; [6]
  microsomal CLint at 1 μM: 8.61 µL/min/mg
[2]; [7]
  microsomal CLint at 1 μM: 9.48 µL/min/mg
physchem
  logD: 0.8
Mu opioid receptor [3]
  pEC50: 5.61
Mu opioid receptor [4]
  pIC50: 6.94

## CC(=O)N[C@H](CNC(=O)[C@@H](C)NC(=O)[C@H](Cc1c(C)cc(O)cc1C)NC(=N)N)Cc1ccccc1 [Example 8]
[1]; [6]
  microsomal CLint at 1 μM: 15.4 µL/min/mg
[2]; [7]
  microsomal CLint at 1 μM: 12.1 µL/min/mg
physchem
  logD: -0.35
Mu opioid receptor [4]; [9]
  pIC50: 7.58

## Cc1cc(O)cc(C)c1C[C@H](NC(=N)N)C(=O)N[C@H](C)C(=O)NC[C@@H](N)Cc1ccccc1 [Example 9]
[1]; [6]
  microsomal CLint at 1 μM: 13.6 µL/min/mg
[2]; [7]
  microsomal CLint at 1 μM: 12.9 µL/min/mg
Mu opioid receptor [3]; [8]
  pEC50: 7.26
Mu opioid receptor [4]; [9]
  pIC50: 7.82

## Cc1cc(O)cc(C)c1C[C@H](NC(=N)N)C(=O)N[C@H](CC[S+](C)[O-])C(=O)NC[C@H](Cc1ccccc1)NC(=N)N (stereo partly drawn) [Example 10, N-alpha-[amino(imino)methyl]-N-[(1R)-1-{[(2S)-2-{[amino(imino)methyl]amino}-3-phenypropyl]carbamoyl}-3-(methylsulfinyl)propyl]-2,6-dimethyl-L-tyrosinamide bis-trifluoroacetate]
Mu opioid receptor [3]; [8]
  pEC50: 7.75

## Cc1cc(O)cc(C)c1C[C@H](NC(=N)N)C(=O)N[C@H](C)C(=O)NCCCc1ccccc1 [Example 11, (S)-2-Guanidino-3-(4-hydroxy-2,6-dimethyl-phenyl)-N-[(R)-1-(3-phenyl-propylcarbamoyl)-ethyl]-propionamide]
[1]; pooled human liver microsomes, pH 7.4, 1 μM substrate
  microsomal CLint at 1 μM: 74 µL/min/mg
[2]; pooled rat liver microsomes, pH 7.4, 1 μM substrate
  microsomal CLint at 1 μM: 61 µL/min/mg
physchem; octanol / 0.1 M phosphate buffer
  logD: -0.1
Mu opioid receptor [4]
  pIC50: 8.07

## CN(C)CCC=C1c2ccccc2CCc2ccccc21 [amitriptyline]
[5]
  log D (known value of positive control): 2.7±0.2

## Cc1ncc2n1-c1ccc(Cl)cc1C(c1ccccc1F)=NC2 [midazolam]
[5]
  log D (known value of positive control): 3.3±0.2
